These are literature values, as cited in paper PMC6325233, “A Novel Actin Binding Drug with In Vivo Efficacy” (Antimicrobial Agents and Chemotherapy, 2018).

For this series the following is noted: at doses required for efficacious effect; cited from earlier work. The method, then: Natural products with in vitro antifungal properties that target the actin cytoskeleton were previously reported ([51]). […] Occidiofungin, on the other hand, is well tolerated at 5 mg/kg or 20 mg/kg when administered intravenously or subcutaneously, respectively ([22], [25]). This dose is much higher than the MIC of occidiofungin against several fungal pathogens. ...

Consider `COC(CC1OC(=O)CC(O)C/C=C/C(=O)C(C)C(OC)c2coc(n2)-c2coc(n2)-c2coc(n2)/C=C/CCC1C)C(C)CCC(=O)C(C)C(C/C=C/N(C)C=O)OC` (centres unmarked) [halichondramide], for which the toxicity in animals result was “limited by their toxicity in animals”. Take jasplakinolide: the toxicity in animals entry is on record as “limited by their toxicity in animals”.
